Data taken from the supplement of paper PMC11451515.

Tested on: P12-Ichikawa
Assay: cell viability relative to DMSO control; higher = less cytotoxic
Details: 48 h
In short: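 Leukemia cells (NOMO1 or SEM, 500 cells/well; P12-Ichikawa, 1000 cells/well) were seeded in 5 μl in 1536-well plates after at least four passages of adaptation to each medium. They received library compounds in DMSO by pin dosing, 11 threefold points from 47 μM to 0.79 nM. Luminescence with CellTiter-Glo One was read after 48 h at 37°C. Viability is stated per plate relative to DMSO wells, with cell-free wells as background.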

[1] = HPLM + 10% dialyzed FBS, 0.000781 µM
[2] = HPLM + 10% dialyzed FBS, 0.00234 µM
[3] = HPLM + 10% dialyzed FBS, 0.00702 µM
[4] = HPLM + 10% dialyzed FBS, 0.0211 µM
[5] = HPLM + 10% dialyzed FBS, 0.0632 µM
[6] = HPLM + 10% dialyzed FBS, 0.19 µM
[7] = HPLM + 10% dialyzed FBS, 0.569 µM
[8] = HPLM + 10% dialyzed FBS, 1.71 µM
[9] = HPLM + 10% dialyzed FBS, 5.12 µM
[10] = HPLM + 10% dialyzed FBS, 15.4 µM
[11] = HPLM + 10% dialyzed FBS, 46.1 µM
[12] = RPMI 5 mM glucose + 10% FBS, 0.000781 µM
[13] = RPMI 5 mM glucose + 10% FBS, 0.00234 µM
[14] = RPMI 5 mM glucose + 10% FBS, 0.00702 µM
[15] = RPMI 5 mM glucose + 10% FBS, 0.0211 µM
[16] = RPMI 5 mM glucose + 10% FBS, 0.0632 µM
[17] = RPMI 5 mM glucose + 10% FBS, 0.19 µM
[18] = RPMI 5 mM glucose + 10% FBS, 0.569 µM
[19] = RPMI 5 mM glucose + 10% FBS, 1.71 µM
[20] = RPMI 5 mM glucose + 10% FBS, 5.12 µM
[21] = RPMI 5 mM glucose + 10% FBS, 15.4 µM
[22] = RPMI 5 mM glucose + 10% FBS, 46.1 µM
[23] = RPMI 5 mM glucose + 10% dialyzed FBS, 0.000781 µM
[24] = RPMI 5 mM glucose + 10% dialyzed FBS, 0.00234 µM
[25] = RPMI 5 mM glucose + 10% dialyzed FBS, 0.00702 µM
[26] = RPMI 5 mM glucose + 10% dialyzed FBS, 0.0211 µM
[27] = RPMI 5 mM glucose + 10% dialyzed FBS, 0.0632 µM
[28] = RPMI 5 mM glucose + 10% dialyzed FBS, 0.19 µM
[29] = RPMI 5 mM glucose + 10% dialyzed FBS, 0.569 µM
[30] = RPMI 5 mM glucose + 10% dialyzed FBS, 1.71 µM
[31] = RPMI 5 mM glucose + 10% dialyzed FBS, 5.12 µM
[32] = RPMI 5 mM glucose + 10% dialyzed FBS, 15.4 µM
[33] = RPMI 5 mM glucose + 10% dialyzed FBS, 46.1 µM

C[S+]([O-])c1ccc(-c2nc(-c3ccc(F)cc3)c(-c3ccncc3)[nH]2)cc1 (centres undefined)
cell viability [1]: 103%
cell viability [2]: 102%
cell viability [3]: 97.3%
cell viability [4]: 111%
cell viability [5]: 109%
cell viability [6]: 108%
cell viability [7]: 107%
cell viability [8]: 93.6%
cell viability [9]: 53.5%
cell viability [10]: 3.78%
cell viability [11]: 1.78%
cell viability [12]: 93.8%
cell viability [13]: 92.2%
cell viability [14]: 103%
cell viability [15]: 99%
cell viability [16]: 102%
cell viability [17]: 92.8%
cell viability [18]: 102%
cell viability [19]: 64.2%
cell viability [20]: 46.6%
cell viability [21]: 3.17%
cell viability [22]: 1.83%
cell viability [23]: 96.6%
cell viability [24]: 103%
cell viability [25]: 99.7%
cell viability [26]: 97.3%
cell viability [27]: 98.7%
cell viability [28]: 99.4%
cell viability [29]: 98.6%
cell viability [30]: 74.2%
cell viability [31]: 45.4%
cell viability [32]: 3.69%
cell viability [33]: 2.1%

CCNc1cc(NC2CCC(O)CC2)nc(Nc2ccc3c(ccn3Cc3ccccc3)c2)n1 (centres undefined)
cell viability [1]: 112%
cell viability [2]: 117%
cell viability [3]: 117%
cell viability [4]: 126%
cell viability [5]: 127%
cell viability [6]: 128%
cell viability [7]: 126%
cell viability [8]: 128%
cell viability [9]: 124%
cell viability [10]: 120%
cell viability [11]: 109%

O=c1[nH]cnc2c1ncn2[C@H]1CC[C@@H](CO)O1
cell viability [1]: 95.9%
cell viability [2]: 101%
cell viability [3]: 107%
cell viability [4]: 102%
cell viability [5]: 99.6%
cell viability [6]: 105%
cell viability [7]: 108%
cell viability [8]: 112%
cell viability [9]: 105%
cell viability [10]: 99.6%
cell viability [11]: 74.1%
cell viability [12]: 83.3%
cell viability [13]: 97.3%
cell viability [14]: 94.6%
cell viability [15]: 109%
cell viability [16]: 96.1%
cell viability [17]: 101%
cell viability [18]: 104%
cell viability [19]: 108%
cell viability [20]: 102%
cell viability [21]: 91.7%
cell viability [22]: 65.5%
cell viability [23]: 83.7%
cell viability [24]: 101%
cell viability [25]: 94.3%
cell viability [26]: 90.1%
cell viability [27]: 96.8%
cell viability [28]: 96.5%
cell viability [29]: 96%
cell viability [30]: 104%
cell viability [31]: 97.1%
cell viability [32]: 84%
cell viability [33]: 67.1%

O=C1NC(O)CCN1[C@@H]1O[C@H](CO)[C@@H](O)[C@H]1O (some centres undefined)
cell viability [1]: 118%
cell viability [2]: 127%
cell viability [3]: 120%
cell viability [4]: 116%
cell viability [5]: 128%
cell viability [6]: 129%
cell viability [7]: 122%
cell viability [8]: 106%
cell viability [9]: 102%
cell viability [10]: 110%
cell viability [11]: 112%
cell viability [23]: 118%
cell viability [24]: 119%
cell viability [25]: 131%
cell viability [26]: 124%
cell viability [27]: 116%
cell viability [28]: 120%
cell viability [29]: 120%
cell viability [30]: 121%
cell viability [31]: 110%
cell viability [32]: 115%
cell viability [33]: 107%

N[C@@H](CC(=O)N1CCn2c(nnc2C(F)(F)F)C1)Cc1cc(F)c(F)cc1F
cell viability [1]: 100%
cell viability [2]: 105%
cell viability [3]: 104%
cell viability [4]: 113%
cell viability [5]: 109%
cell viability [6]: 104%
cell viability [7]: 102%
cell viability [8]: 103%
cell viability [9]: 98.2%
cell viability [10]: 97%
cell viability [11]: 94.7%
cell viability [12]: 91%
cell viability [13]: 103%
cell viability [14]: 97.3%
cell viability [15]: 95.8%
cell viability [16]: 99.2%
cell viability [17]: 99.7%
cell viability [18]: 92.8%
cell viability [20]: 95.4%
cell viability [21]: 89.5%
cell viability [22]: 88.3%
cell viability [23]: 98.4%
cell viability [24]: 94.5%
cell viability [25]: 97.3%
cell viability [26]: 100%
cell viability [27]: 100%
cell viability [28]: 84.9%
cell viability [29]: 90.9%
cell viability [30]: 89.4%
cell viability [31]: 91.4%
cell viability [32]: 91.3%
cell viability [33]: 88%

CC(NCc1ccc2c(c1)[nH]/c(=N\C(=O)c1ccc(-c3cn[nH]c3)s1)n2CC(C)(C)O)C(C)(C)C (centres undefined)
cell viability [1]: 117%
cell viability [2]: 112%
cell viability [3]: 108%
cell viability [4]: 115%
cell viability [5]: 117%
cell viability [6]: 111%
cell viability [7]: 99.1%
cell viability [8]: 65%
cell viability [9]: 29.5%
cell viability [10]: 25.9%
cell viability [11]: 2.69%
cell viability [12]: 109%
cell viability [13]: 118%
cell viability [14]: 121%
cell viability [15]: 123%
cell viability [16]: 124%
cell viability [17]: 121%
cell viability [18]: 102%
cell viability [19]: 72.9%
cell viability [20]: 29.8%
cell viability [21]: 14.7%
cell viability [22]: 2.33%
cell viability [23]: 134%
cell viability [24]: 124%
cell viability [25]: 120%
cell viability [26]: 130%
cell viability [27]: 119%
cell viability [28]: 122%
cell viability [29]: 104%
cell viability [30]: 71%
cell viability [31]: 31.7%
cell viability [32]: 24.9%
cell viability [33]: 3.31%
